Results from patent US6399766B2, “4-halogenated steroids, their preparation process and intermediates, their use as medicaments and the pharmaceutical compositions containing them” (Aventis Pharma S.A., priority 1997, dated 2002).

Columns and labels:
[1] = tested on: MCF-7 human mammary cells; experiment: Effect on the proliferation of mammary cells; format: cell-based; parameters: key: Mixed: slight agonist activity at very low concentrations and an inhibitory activity at higher concentrations; details: 7 days culture, steroid-free medium, DNA determination; oestradiol at 10^−10M = 100% agonist activity
From the text: PHARMACOLOGICAL TESTS Effect on the proliferation of mammary cells The proliferative activity of the molecules is studied in comparison to that of oestradiol on MCF-7 human mammary cells in culture. In order to reveal an agonist effect of the oestradiol and/or the tested molecules, the cell maintenance culture (rich in growth factors and steroids) is replaced by an impoverished medium, amongst others free of steroids (DMEM supplemented with 5% of steroid-free serum and without phenol red). Cells undergo this severance two days before the start of the test. After 7 days culture in the presence of the products to be studied, the cell proliferation is evaluated by determination of the DNA. In each test, the effect of the oestradiol at 10^−10M (cell growth in the presence of oestradiol less cell growth in the presence of the solvent) determines the 100% agonist activity. The activity of the molecules is evaluated in comparison to this internal control.

[2] = tested on: ovariectomized female rat; experiment: Bone impact study in the ovariectomized female rat at the age of 3 months (tibia BMD, uterus weight, seric cholesterol); format: in vivo; details: OVX rat, 4 weeks; for TIBIA BONE BMD %: (product BMD - OVX BMD)x100/(SHAM BMD - OVX BMD); for UTERUS Weight %: increase in % of uterus weight of OVX animals receiving only solvent; for Cholesterol %: seric cholesterol, % relative to OVX animals receiving only solvent
Protocol: Bone impact study of a product in the ovariectomized female rat at the age of 3 months Compounds A, B, C, D, E are tested in order to determine their effect on the bone mass and on the formation and resorption activity in the model of the ovariectomized rat at the age of 3 months. […] The study is carried out with female rats ovariectomized at the age of 3 months. The animals are kept in an air conditioned room (temperature 20° C.±2° C.) and grouped by 4 into boxes. The animals receive, ad libitum, demineralized water and compressed foods (pellets: AO4CR-10 UAR). The 3 month old female rats weighing approximately 250 g are ovariectomized under anaesthesia with Imalgene 1000, at a dose of 100 mg/kg by intraperitoneal route (i.p.) and under a volume of 1 ml/kg. They also receive Nembutal (3 mg/kg i.p. under a volume of 0.3 ml/kg). After lateral incision, cutaneous and muscular planes are sectioned. The exeresis of each ovary is carried out after ligature of the oviduct. The “SHAM” control rats are anaesthetised under the same conditions. After incision of the cutaneous and muscular planes, each ovary is exposed then replaced in situ. The effects of the products are determined in a preventive treatment. They are administered immediately after the ovariectomy. Animals distributed into groups of 8. Group 1: “SHAM” control rats receiving the vehicle or vehicles Group 2: “OVX” control rats receiving the vehicle or vehicles. Groups X: “OVX” rats receiving respectively defined doses of the product or products to be tested. At the end of 4 weeks (duration of the study) the animals are decapitated by guillotine. The serums collected after centrifugation are preserved at −20° C. A lipidic balance will be established from the serous determinations of total cholesterol, of triglycerides and of phospholipids on a 500 μl aliquot of serum. The lowering of the seric cholesterol level is expressed in % relative to the level shown by the ovariectomized animals receiving only the solvent. The uteri are removed. The latter are weighed. The increase in weight is expressed in % of the weight of the uterus of ovariectomized animals receiving only the solvent. The bone mass (BMD or Bone mineral density) is measured by biphotonic dual energy X-ray absorptiometry (DEXA). The measurements are carried out on bone excized and cleaned of all soft tissue. The BMD (Bone mineral density) is measured on the whole bone as well as on the metaphyseal part at the level of the proximal extremity for the left tibia. This zone is defined as being the region which is richest in trabecular bone; and consequently, is the most sensitive to variations in bone volume and bone mineral density. The results are expressed in % according to the formula: Tested product BMD - OVX BMD ×100/SHAM BMD - OVX BMD

SMILES | ACTIVITY (proliferative activity on MCF-7 cells) [1] | TIBIA BONE BMD % ([2]; 0.3 mg/kg po) [%] | UTERUS Weight % ([2]; 0.3 mg/kg po) [%] | Cholesterol % ([2]; 0.3 mg/kg po) [%] | TIBIA BONE BMD % ([2]; 1.0 mg/kg po) [%] | UTERUS Weight % ([2]; 1.0 mg/kg po) [%] | Cholesterol % ([2]; 1.0 mg/kg po) [%] | TIBIA BONE BMD % ([2]; 0.1 mg/kg s.c.) [%] | UTERUS Weight % ([2]; 0.1 mg/kg s.c.) [%] | Cholesterol % ([2]; 0.1 mg/kg s.c.) [%]
C[C@]12C[C@H](c3ccc(OCCN4CCCCC4)cc3)[C@@H]3c4ccc(O)c(Cl)c4CC[C@H]3[C@@H]1CCC2=O [Example 1, 4-chloro-3-hydroxy-11beta-[4-[2-(1-piperidinyl)ethoxy]phenyl]-estra-1,3,5 (10)-trien-17-one] | Mixed | 57 | 55 | −50 | 64 | 55 | −48 |  |  | 
CCN(CC)CCOc1ccc([C@H]2C[C@]3(C)[C@@H](O)CC[C@H]3[C@@H]3CCc4c(ccc(O)c4Cl)[C@H]32)cc1 [Example 20, 4-chloro-11beta-[4-[2-(diethylamino)ethoxy]phenyl]-estra-1,3,5 (10)-triene-3,17beta-diol] | Mixed* | 69 | 60 | −43 | 74 | 50 | −40 |  |  | 
C[C@]12C[C@H](c3ccc(OCCN4CCCCC4)cc3)[C@@H]3c4ccc(O)c(Cl)c4CC[C@H]3[C@@H]1CC[C@@H]2O [Example 22, 4-chloro-11β-[4-[2-(1-piperidinyl)ethoxy]phenyl]-estra-1,3,5(10)-triene-3,17beta-diol] | Inactive | 63 | 57 | −52 |  |  |  |  |  | 
C[C@]12C[C@H](c3ccc(OCCN4CCCC4)cc3)[C@@H]3c4ccc(O)c(Cl)c4CC[C@H]3[C@@H]1CC[C@@H]2O [Example 23, 4-chloro-11β-[4-[2-(1-pyrrolidinyl)ethoxy]phenyl]-estra-1,3,5(10)-triene-3,17beta-diol] | Mixed | 67 | 64 | −53 | 71 | 74 | −53 |  |  | 
CC1(O)CCC2C3CCc4c(ccc(O)c4Cl)C3C(c3ccc(OCCN4CCCCC4)cc3)CC21C (stereo not drawn) [Example 30, 4-chloro-17alpha-methyl-11β-[4-[2-(1-piperidinyl)ethoxy]phenyl]-estra-1,3,5(10)-triene-3,17beta-diol.] | Mixed | 52 | 68 | −51 | 71 | 55 | −48 |  |  | 
C[C@]12CC[C@@H]3c4ccc(O)cc4CC[C@H]3[C@@H]1CC[C@@H]2O [Oestradiol, 17β oestradiol, reference compound] | Agonist |  |  |  |  |  |  | 105 | 359 | −35
